Laboratory results as given in the NIST ThermoML archive (doi:10.1021/je3009073).

Experiment: xn = mol fraction of the nth substance listed
Details: 101 kPa, Liquid; for viscosity: Capillary tube (Ostwald / Ubbelohde) method; for mass density: Pycnometric method

CC(O)C(=O)[O-].CN(C)C(N)=[N+](C)C [1,1,3,3-tetramethylguanidinium lactate] + O
Details	mass density [kg/m3]	viscosity [mPa·s]
303.15 K, x2 = 0	1123.5	13684
303.15 K, x2 = 0.1001	1124	7665.3
303.15 K, x2 = 0.2165	1124.3	3594.1
303.15 K, x2 = 0.3182	1124.7	1926
303.15 K, x2 = 0.409	1124.9	1128.2
303.15 K, x2 = 0.5036	1124.5	554.56
303.15 K, x2 = 0.6044	1122.8	253.27
303.15 K, x2 = 0.7034	1119.9	104.72
303.15 K, x2 = 0.8113	1111.2	32.59
303.15 K, x2 = 0.9017	1088.3	8.68
303.15 K, x2 = 0.95	1058.1	3.32
308.15 K, x2 = 0	1120.9	7295.9
308.15 K, x2 = 0.1001	1121.2	4186.3
308.15 K, x2 = 0.2165	1121.5	2150.1
308.15 K, x2 = 0.3182	1121.9	1141.9
308.15 K, x2 = 0.409	1122.1	698
308.15 K, x2 = 0.5036	1121.3	352.18
308.15 K, x2 = 0.6044	1119.7	175.49
308.15 K, x2 = 0.7034	1116.7	74.98
308.15 K, x2 = 0.8113	1107.9	25.05
308.15 K, x2 = 0.9017	1084.9	7.1
308.15 K, x2 = 0.95	1055	2.83
313.15 K, x2 = 0	1117.6	3961.9
313.15 K, x2 = 0.1001	1117.9	2412.1
313.15 K, x2 = 0.2165	1118.1	1263.3
313.15 K, x2 = 0.3182	1118.4	718.88
313.15 K, x2 = 0.409	1118.5	429.45
313.15 K, x2 = 0.5036	1117.6	235.35
313.15 K, x2 = 0.6044	1116.1	122.11
313.15 K, x2 = 0.7034	1113.1	55.39
313.15 K, x2 = 0.8113	1104.2	19.16
313.15 K, x2 = 0.9017	1081.5	5.87
313.15 K, x2 = 0.95	1051.5	2.41
318.15 K, x2 = 0	1114.3	2264.3
318.15 K, x2 = 0.1001	1114.5	1261.7
318.15 K, x2 = 0.2165	1114.6	797.81
318.15 K, x2 = 0.3182	1114.9	458.45
318.15 K, x2 = 0.409	1114.9	289.6
318.15 K, x2 = 0.5036	1114.1	167.33
318.15 K, x2 = 0.6044	1112.6	89.04
318.15 K, x2 = 0.7034	1109.6	42
318.15 K, x2 = 0.8113	1100.6	15.25
318.15 K, x2 = 0.9017	1078.1	4.94
318.15 K, x2 = 0.95	1048.4	2.1
323.15 K, x2 = 0	1111.6	1365.5
323.15 K, x2 = 0.1001	1111.7	890.99
323.15 K, x2 = 0.2165	1111.7	502.11
323.15 K, x2 = 0.3182	1112	310.53
323.15 K, x2 = 0.409	1111.8	201.98
323.15 K, x2 = 0.5036	1111.1	120.29
323.15 K, x2 = 0.6044	1109.2	64.59
323.15 K, x2 = 0.7034	1106.7	32.53
323.15 K, x2 = 0.8113	1097.1	12.34
323.15 K, x2 = 0.9017	1074.5	4.2
323.15 K, x2 = 0.95	1045.6	1.86
328.15 K, x2 = 0	1108.1	867.05
328.15 K, x2 = 0.1001	1108.1	579.99
328.15 K, x2 = 0.2165	1108.2	341
328.15 K, x2 = 0.3182	1108.4	218.6
328.15 K, x2 = 0.409	1108.2	146.62
328.15 K, x2 = 0.5036	1107.4	88.71
328.15 K, x2 = 0.6044	1105.6	49.38
328.15 K, x2 = 0.7034	1102.9	25.68
328.15 K, x2 = 0.8113	1093.2	10.19
328.15 K, x2 = 0.9017	1070.6	3.62
328.15 K, x2 = 0.95	1042.5	1.65

CC(O)C(=O)[O-].[NH3+]CCO (stereo not drawn) [2-hydroxyethylammonium lactate] + O
Details	mass density [kg/m3]	viscosity [mPa·s]
303.15 K, x2 = 0	1226.1	11341
303.15 K, x2 = 0.116	1225.3	6523.5
303.15 K, x2 = 0.2026	1223	3828.7
303.15 K, x2 = 0.3045	1220	2137.9
303.15 K, x2 = 0.4043	1216.5	1051
303.15 K, x2 = 0.5027	1210.1	498.98
303.15 K, x2 = 0.6023	1203.2	212
303.15 K, x2 = 0.7016	1190.3	74.69
303.15 K, x2 = 0.8022	1167.2	22.28
303.15 K, x2 = 0.9007	1121	5.19
303.15 K, x2 = 0.9501	1076	2.24
308.15 K, x2 = 0	1223.1	6699.9
308.15 K, x2 = 0.116	1222.2	3975.1
308.15 K, x2 = 0.2026	1219.9	2401.1
308.15 K, x2 = 0.3045	1216.9	1372.6
308.15 K, x2 = 0.4043	1213.4	675.18
308.15 K, x2 = 0.5027	1206.9	343.45
308.15 K, x2 = 0.6023	1200.2	156.6
308.15 K, x2 = 0.7016	1187.2	56.32
308.15 K, x2 = 0.8022	1164.2	18.03
308.15 K, x2 = 0.9007	1118.2	4.46
308.15 K, x2 = 0.9501	1073.5	1.97
313.15 K, x2 = 0	1220.4	4144.6
313.15 K, x2 = 0.116	1219.5	2468.4
313.15 K, x2 = 0.2026	1217.1	1570.4
313.15 K, x2 = 0.3045	1214.1	900.49
313.15 K, x2 = 0.4043	1210.6	458.18
313.15 K, x2 = 0.5027	1204.1	243.72
313.15 K, x2 = 0.6023	1197.3	109.99
313.15 K, x2 = 0.7016	1184.3	43.42
313.15 K, x2 = 0.8022	1161.5	14.62
313.15 K, x2 = 0.9007	1115.7	3.83
313.15 K, x2 = 0.9501	1071.2	1.74
318.15 K, x2 = 0	1217.4	2653.8
318.15 K, x2 = 0.116	1216.3	1615.5
318.15 K, x2 = 0.2026	1213.9	1047.4
318.15 K, x2 = 0.3045	1211	601.07
318.15 K, x2 = 0.4043	1207.6	321.24
318.15 K, x2 = 0.5027	1201	174.88
318.15 K, x2 = 0.6023	1194.2	83.91
318.15 K, x2 = 0.7016	1181.2	34.39
318.15 K, x2 = 0.8022	1158.4	11.85
318.15 K, x2 = 0.9007	1112.7	3.35
318.15 K, x2 = 0.9501	1068.4	1.57
323.15 K, x2 = 0	1214.9	1733.6
323.15 K, x2 = 0.116	1213.7	1084.5
323.15 K, x2 = 0.2026	1211.3	717.58
323.15 K, x2 = 0.3045	1208.3	418.69
323.15 K, x2 = 0.4043	1204.9	232.51
323.15 K, x2 = 0.5027	1198.1	–
323.15 K, x2 = 0.6023	1191.5	64.89
323.15 K, x2 = 0.7016	1178.4	27.88
323.15 K, x2 = 0.8022	1155.7	9.96
323.15 K, x2 = 0.9007	1110.1	2.94
323.15 K, x2 = 0.9501	1065.8	1.41
328.15 K, x2 = 0	1212	1182.5
328.15 K, x2 = 0.116	1210.6	742.12
328.15 K, x2 = 0.2026	1208.1	478.37
328.15 K, x2 = 0.3045	1205.3	299.81
328.15 K, x2 = 0.4043	1201.7	173.38
328.15 K, x2 = 0.5027	1195.1	99.46
328.15 K, x2 = 0.6023	1188.4	50.52
328.15 K, x2 = 0.7016	1175.3	22.65
328.15 K, x2 = 0.8022	1152.6	8.43
328.15 K, x2 = 0.9007	1107	2.61
328.15 K, x2 = 0.9501	1063	1.25
